Data on 13 compounds can be found in patent US6861428B2, “Water-soluble phenylpyridazine compounds and compositions containing the same” (Kowa Co., Ltd., priority 2001, dated 2005).

One data set is described as follows: Water solubility test. It counts as physicochemical. The note with it: for Solubility (%): purified water, from amount of water required for dissolution. As to the method:
Each sample compound was weighed in the amount shown in Table 3, to which purified water was added in 0.05 mL aliquots. The solubility (%) of the compound was determined based on the amount of water required for its dissolution.

Data set [1] can be described thus: Oral absorbability test on rats and/or mice. The class given is in vivo. To be noted: orally administered to mice and/or rats, as in Experiment 3, FIGS. 2 to 6. As to the method:
(§1) The compound of Example 83 and the comparative compound 3 were suspended at 2 mg/mL with a 0.5% MC solution in mortars, respectively, and were orally administered to male SD rats at 10 mg/5 mL/kg. Upon elapsed time of 0.25, 0.5, 1, 2, 4, 6 and 8 hours after the administration, blood samples were collected and then centrifuged to provide plasma samples. The plasma levels of the respective compounds were determined by HPLC. […] The compound of Example 83 is, therefore, useful as an orally dosable medicine.
In a similar manner as in Experiment 3, test compounds of Examples 23, 25, 143, 193, 245, 246, 247, 248 and 249 were orally administered to mice and/or rats to test their oral absorbability.

Data set [2] has as its system interleukin-1β production. Description: Inhibitory activity against interleukin-1β production (LPS-stimulated HL-60 cells, ELISA). It counts as cell-based. The note with it: lipopolysaccharide 10 μg/mL, 3 days, Table 1, read-out: IL-1β production inhibiting activity IC50. As to the method:
Inhibitory Activity Against Interleukin-1β Production
HL-60 cells were cultured for 4 days until confluence on RPMI 1640 medium with 10% fetal bovine serum (FBS) added thereto. The medium was centrifuged. The supernatant was discarded, and the cells were then suspended at 1×10^6 cells/mL on RPMI 1640 medium with 3% FBS, and lipopolysaccharide was added to give a final concentration of 10 μg/mL. The culture was inoculated at 1 mL/well to a 24-well plate. A sample compound was added at 1 μL/well, followed by culturing for 3 days. Three days later, the amount of interleukin-1β in each culture was determined by ELISA. Each IC50 value was determined by a comparison in yield with a control to which no test sample was added.
In general terms: An ELISA detects its analyte on a solid surface through an enzyme-linked reagent.

A short description of data set [3]: Oral absorbability test on rats. It counts as in vivo. To be noted: male SD rats, oral 10 mg/5 mL/kg, suspension in 0.5% MC, 0.25-8 hours, FIG. 1. As to the method: as §1

Like-named read-outs stand apart in the source and are kept apart here. Bounds are passed on as bounds.

By IC50 is commonly meant the midpoint of a concentration-inhibition curve. Turning to `COc1ccc(-c2cc(CN(CCO)CCO)c(=O)n(CC3CC3)n2)cc1F.Cl` [Example 23, 4-N,N-bis(2-hydroxyethyl)aminomethyl-2-cyclopropylmethyl-6-(3-fluoro-4-methoxyphenyl)-2H-pyridazin-3-one hydrochloride], in the data set “Water solubility test”, the “Solubility (%)” value came out at 10%. The Oral absorbability entry in data set [1] was “good absorbability”. The IC50 in data set [2] was 12.3 µM.
As for `COc1ccc(-c2cc(CN)c(=O)n(CC3CC3)n2)cc1F.Cl` [Example 25, 4-aminomethyl-2-cyclopropylmethyl-6-(3-fluoro-4-methoxyphenyl)-2H-pyridazin-3-one hydrochloride], the “Solubility (%)” value in the data set “Water solubility test” stood at 0.4%. In addition, in data set [1], the Oral absorbability entry is “good absorbability”. Besides, in data set [2] (Homo sapiens, 72 h), the half-maximal inhibitory concentration (IC50) was 2.74 µM.
In the case of `Cc1cc(-c2cc(CN3CCN(C)CC3)c(=O)n(CC(C)C)n2)ccc1F.Cl.Cl` [Example 83, 6-(4-fluoro-3-methylphenyl)-2-isobutyl-4-(4-methyl-1-piperazinyl)methyl-2H-pyridazin-3-one dihydrochloride], the IC50 in data set [2] (Homo sapiens, 72 h) was 0.27 µM. The “Oral absorption (plasma level by HPLC)” value in data set [3] was “good absorption”.
Regarding `CC(C)Cn1nc(-c2ccc(F)c(F)c2)cc(CN(CCO)CCO)c1=O.Cl` [Example 108, 4-N,N-bis(2-hydroxyethyl)aminomethyl-6-(3,4-difluorophenyl)-2-isobutyl-2H-pyridazin-3-one hydrochloride], the “Solubility (%)” value in “Water solubility test” is listed as more than 20%. Further, the IC50 in data set [2] stood at 3.44 µM.
As a reminder, the melting point is the temperature of the solid-liquid transition. For `Cc1cc(-c2cc(CN3CCN(C)CC3)c(=O)n(CC=Cc3ccc(Cl)cc3)n2)ccc1F.Cl.Cl` [Example 143, 2-(4-chlorocinnamyl)-6-(4-fluoro-3-methylphenyl)-4-(4-methyl-1-piperazinyl)methyl-2H-pyridazin-3-one dihydrochloride], the melting point was 229.7 to 243.3 °C (dec.). In addition, the “Solubility (%)” value in “Water solubility test” stood at 10%. The Oral absorbability result in data set [1] is reported as “good absorbability”. Further, in data set [2] (Homo sapiens, 72 h), the concentration for half-maximal inhibition (IC50) came to 8.55 µM.
`CSc1ccc(-c2cc(CN3CCN(C)CC3)c(=O)n(CC3CC3)n2)cc1.Cl.Cl` [Example 149, 2-cyclopropylmethyl-4-(4-methyl-1-piperazinyl)methyl-6-[4-(methylthio)phenyl]-2H-pyridazin-3-one dihydrochloride]: the melting point was in the range of 234.6 to 239.2 °C. In addition, in “Water solubility test”, the “Solubility (%)” value is more than 10%. In addition, in data set [2] (Homo sapiens, 72 h), the IC50 came to 1.63 µM.
For `COc1ccc(-c2cc(CN3CCNCC3)c(=O)n(Cc3ccc(F)cc3)n2)cc1F.Cl.Cl` [Example 193, 2-(4-fluorobenzyl)-6-(3-fluoro-4-methoxyphenyl)-4-(1-piperazinyl)methyl-2H-pyridazin-3-one dihydrochloride], the “Solubility (%)” value in the data set “Water solubility test” is on record as 5%. For the same compound, the Oral absorbability entry in data set [1] is “good absorbability”.
`COc1ccc(-c2cc(CN3CCN(C)CC3)c(=O)n(Cc3ccc(F)c(F)c3)n2)cc1F.Cl.Cl` [Example 245, 2-(3,4-difluorobenzyl)-6-(3-fluoro-4-methoxyphenyl)-4-(4-methyl-1-piperazinyl)methyl-2H-pyridazin-3-one dihydrochloride]: the “Solubility (%)” value in the data set “Water solubility test” came to 10%. Also, in data set [1], the Oral absorbability entry is “good absorbability”.
For the compound `COc1ccc(-c2cc(CN(C)C)c(=O)n(Cc3ccc(F)c(F)c3)n2)cc1F.Cl` [Example 246, 2-(3,4-difluorobenzyl)-4-dimethylaminomethyl-6-(3-fluoro-4-methoxyphenyl)-2H-pyridazin-3-one hydrochloride], the “Solubility (%)” value in the data set “Water solubility test” worked out at 2%. For the same compound, the Oral absorbability entry in data set [1] is recorded as “good absorbability”.
Consider `Cc1cc(-c2cc(CN3CCN(C)CC3)c(=O)n(CCCc3ccc(Cl)cc3)n2)ccc1F.Cl.Cl` [Example 247, 2-[3-(4-chlorophenyl)propyl]-6-(4-fluoro-3-methylphenyl)-4-(4-methyl-1-piperazinyl)methyl-2H-pyridazin-3-one dihydrochloride], for which, in “Water solubility test”, the “Solubility (%)” value is listed as 10%. For the same compound, the Oral absorbability result in data set [1] was “good absorbability”.
In the same order, the values of `COc1ccc(-c2cc(CN3CCN(C)CC3)c(=O)n(CC=Cc3ccc(Cl)cc3)n2)cc1F.Cl.Cl` [Example 248, 2-(4-chlorocinnamyl)-6-(3-fluoro-4-methoxyphenyl)-4-(4-methyl-1-piperazinyl)methyl-2H-pyridazin-3-one dihydrochloride] are 0.06% and “good absorbability”.
Consider `COc1ccc(-c2cc(CN3CCN(CCO)CC3)c(=O)n(CC=Cc3ccc(Cl)cc3)n2)cc1F.Cl.Cl` [Example 249, 2-(4-chlorocinnamyl)-6-(3-fluoro-4-methoxyphenyl)-4-[4-(2-hydroxyethyl)-1-piperazinyl]methyl-2H-pyridazin-3-one dihydrochloride], for which, in “Water solubility test”, the “Solubility (%)” value came out at 0.03%. The Oral absorbability result in data set [1] is given as “good absorbability”.
With `CNC(=O)c1cc(-c2ccc(OC)c(F)c2)nn(CC2CC2)c1=O` [compound 3, reference compound], in “Water solubility test” (100 mL purified water added), the “Dissolution in amount of added water” value is “(insoluble)”. Moreover, in “Water solubility test”, the “Solubility (%)” value was less than 0.001%. For the same compound, the “Oral absorption (plasma level by HPLC)” value in data set [3] is on record as “no substantial absorption”.
